# Assay results taken from ChEMBL document CHEMBL4257554, “On the inhibition of capsaicin response in dorsal root ganglion neurons by nobilamide B and analogues: a structure-activity relationship study” (Medchemcomm, 2018).
# Non-standard residues stand in square brackets, D forms with d. Residues, ends and D or L forms follow the SMILES beside them. *: point of attachment. d(aThr) = C[C@@H](O)[C@@H](N)C(=O)O; Dhb = C/C=C(\N)C(=O)O; Propionyl = CCC(=O)*
# Target: Transient receptor potential cation channel subfamily V member 1 (Mus musculus) (UniProt Q704Y3)
# Experiment: Antagonist activity at TRPV1 channel in mouse DRG neurons assessed as inhibition of capsaicin-induced calcium accumulation at 300 uM incubated for 6 mins by Fura-2-AM dye based fluorescence assay relative to control
# Chain of Transient receptor potential cation channel subfamily V member 1 (Mus musculus) (Q704Y3 whole entry): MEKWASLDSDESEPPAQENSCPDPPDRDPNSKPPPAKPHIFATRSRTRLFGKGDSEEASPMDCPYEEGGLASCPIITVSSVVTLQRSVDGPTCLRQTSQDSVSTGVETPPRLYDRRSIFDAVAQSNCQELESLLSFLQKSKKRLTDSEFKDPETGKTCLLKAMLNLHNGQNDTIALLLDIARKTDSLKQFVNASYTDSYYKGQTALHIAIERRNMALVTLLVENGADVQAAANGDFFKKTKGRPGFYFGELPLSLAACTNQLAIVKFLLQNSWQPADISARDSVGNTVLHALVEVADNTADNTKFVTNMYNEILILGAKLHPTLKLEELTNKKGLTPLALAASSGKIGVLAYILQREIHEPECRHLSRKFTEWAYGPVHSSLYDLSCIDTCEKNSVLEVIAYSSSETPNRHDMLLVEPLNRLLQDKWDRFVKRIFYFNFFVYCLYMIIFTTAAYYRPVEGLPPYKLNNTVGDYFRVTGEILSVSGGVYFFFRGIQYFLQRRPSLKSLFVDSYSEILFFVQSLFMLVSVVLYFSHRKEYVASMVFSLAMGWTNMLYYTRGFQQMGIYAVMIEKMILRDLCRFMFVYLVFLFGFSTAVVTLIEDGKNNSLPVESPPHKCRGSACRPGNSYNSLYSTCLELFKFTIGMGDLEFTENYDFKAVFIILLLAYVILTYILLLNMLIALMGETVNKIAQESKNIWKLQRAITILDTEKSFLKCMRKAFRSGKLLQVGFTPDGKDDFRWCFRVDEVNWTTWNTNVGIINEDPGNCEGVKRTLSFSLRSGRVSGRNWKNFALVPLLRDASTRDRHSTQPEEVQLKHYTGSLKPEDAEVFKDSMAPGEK
row,SMILES,inhibition [%]
1,C/C=C(\NC(=O)[C@H](C)NC(=O)[C@@H](NC(=O)[C@H](NC(=O)[C@H](Cc1ccccc1)NC(=O)[C@H](C)NC(=O)[C@@H](Cc1ccccc1)NC(=O)CC)[C@@H](C)O)C(C)C)C(=O)O,3.27
2,C/C=C(\NC(=O)[C@H](C)NC(=O)[C@@H](NC(=O)[C@H](NC(=O)[C@H](C)NC(=O)[C@@H](CC(C)C)NC(=O)[C@@H](Cc1ccccc1)NC(=O)CC)[C@@H](C)O)C(C)C)C(=O)O,23.5
3,CCC(=O)N[C@H](Cc1ccccc1)C(=O)N[C@H](CC(C)C)C(=O)N[C@@H](Cc1ccccc1)C(=O)N[C@@H](C(=O)N[C@H](C(=O)N[C@@H](C)C(=O)N[C@@H](C)C(=O)O)C(C)C)[C@@H](C)O,35.6
4,C/C=C(\NC(=O)[C@H](C)NC(=O)[C@@H](NC(=O)[C@H](NC(=O)[C@H](Cc1ccccc1)NC(=O)[C@@H](CC(C)C)NC(=O)[C@H](C)NC(=O)CC)[C@@H](C)O)C(C)C)C(=O)O,6.47
5,C/C=C(\NC(=O)[C@H](C)NC(=O)[C@@H](NC(=O)[C@H](NC(=O)[C@H](Cc1ccccc1)NC(=O)[C@@H](CC(C)C)NC(=O)[C@@H](Cc1ccccc1)NC(=O)CC)[C@@H](C)O)C(C)C)C(=O)O (Propionyl-[dF][dL]F[d(aThr)]VA[Dhb]-OH),33.6

# Further lines, results first:
row,inhibition [%],SMILES
1,27.8,C/C=C(\NC(=O)[C@H](C)NC(=O)[C@H](C)NC(=O)[C@H](NC(=O)[C@H](Cc1ccccc1)NC(=O)[C@@H](CC(C)C)NC(=O)[C@@H](Cc1ccccc1)NC(=O)CC)[C@@H](C)O)C(=O)O
2,5.38,C/C=C(\NC(=O)[C@H](C)NC(=O)[C@@H](NC(=O)[C@H](C)NC(=O)[C@H](Cc1ccccc1)NC(=O)[C@@H](CC(C)C)NC(=O)[C@@H](Cc1ccccc1)NC(=O)CC)C(C)C)C(=O)O
